Legend:
[1] = test system: LU1245 NSCLC PDX xenograft model; assay: TH-302 efficacy in LU1245 NSCLC PDX xenograft model; type: in vivo, mice
Source text: (§1) A series of tumor xenograft experiments was initiated. In these gall bladder and NSCLC tumor experiments, patient-derived tumor xenograft (PDX) models were selected since these models more accurately mimic the histology and genetics of actual human tumors as compared with the cell line derived models. More specifically, the original tumor sources for these human tumor xenograft models were patient-derived (PDX) gall bladder and lung carcinomas that have been maintained subcutaneously in nude mice for >3 passages. When grown to 500-700 mm^3, the tumors were harvested for inoculation by selecting and slicing (into 3×3×3 mm^3 fragments) well grown portions of tumors. These tumor fragments were implanted subcutaneously in the right flank of athymic nu/nu mice (female, 6-8 weeks old (18-20 g)) for the efficacy experiments. All of the procedures for tumor harvesting, inoculation, animal dosing, and tumor and body weight measurement were conducted in a sterile hoods.
(§2) For the efficacy studies, when the average tumor size reached 100-200 mm^3, mice were randomly grouped into vehicle and TH-302 treatment groups. Each group contained 8-10 mice. Since the tumor volume could affect the effectiveness of any given treatment, a randomized block design was used in the group assignment based upon their tumor volumes. […] After randomization, mice were treated with either vehicle or TH-302 i.p. 60 mg/kg twice per week (Q2W) for approximately 5-8 weeks based on tumor grow rate and response. The precise dosing periods are described in the legends of FIGS. 1 and 2 above. Tumor volumes were measured twice weekly.
(§3) %ΔT/ΔC was calculated with the formula below: %ΔT/ΔC=((TVf−TVi)/(TVfCtrl−TViCtrl))×100% where TV=tumor volume, f=final, I=initial, and Ctrl=control group.
(§4) If tumor regression was observed: %ΔT/ΔC=(TVf−TVi)/TVi)×100%=% Regression=(1−(TVf/TVi))×100% where TV=tumor volume, f=final, I=initial, and Ctrl=control group. […]

[2] = Body weights of mice treated with TH-302 in PDX xenograft studies; type: in vivo; conditions: 60 mg/kg i.p. Q2W, data not shown
Source text: as §1
For the efficacy studies, when the average tumor size reached 100-200 mm^3, mice were randomly grouped into vehicle and TH-302 treatment groups. Each group contained 8-10 mice. Since the tumor volume could affect the effectiveness of any given treatment, a randomized block design was used in the group assignment based upon their tumor volumes. […] Tumor volumes were measured twice weekly.

[3] = test system: LU2505 NSCLC PDX xenograft model; assay: TH-302 efficacy in LU2505 NSCLC PDX xenograft model; type: in vivo, mice
Source text: as §1
(§5) For the efficacy studies, when the average tumor size reached 100-200 mm^3, mice were randomly grouped into vehicle and TH-302 treatment groups. Each group contained 8-10 mice. […] Tumor volumes were measured twice weekly.
(§6) %ΔT/ΔC was calculated with the formula below: %ΔT/ΔC=((TVf−TVi)/(TVfCtrl−TViCtrl))×100% where TV=tumor volume, f=final, I=initial, and Ctrl=control group. […]

[4] = test system: panel of 11 cancer cell-line derived models; conditions: previous tumor xenograft studies; cited from earlier work
[5] = test system: GL0608 gall bladder cancer PDX xenograft model; assay: TH-302 efficacy in GL0608 gall bladder cancer PDX xenograft model; type: in vivo, mice
Source text: as §1, §2, §3, §4

[6] = test system: LU0357 NSCLC PDX xenograft model; assay: TH-302 efficacy in LU0357 NSCLC PDX xenograft model; type: in vivo, mice
Source text: as §1, §5, §6

[7] = test system: GL1208 gall bladder cancer PDX xenograft model; assay: TH-302 efficacy in GL1208 gall bladder cancer PDX xenograft model; type: in vivo, mice
Source text: as §1, §5, §6

[8] = test system: LU0387 NSCLC PDX xenograft model; assay: TH-302 efficacy in LU0387 NSCLC PDX xenograft model; type: in vivo, mice
Source text: as §1, §5, §6

[9] = test system: LU1380 NSCLC PDX xenograft model; assay: TH-302 efficacy in LU1380 NSCLC PDX xenograft model; type: in vivo, mice
Source text: as §1, §5, §6

[10] = test system: LU1304 NSCLC PDX xenograft model; assay: TH-302 efficacy in LU1304 NSCLC PDX xenograft model; type: in vivo, mice
Source text: as §1, §5, §6

[11] = test system: LU1235 NSCLC PDX xenograft model; assay: TH-302 efficacy in LU1235 NSCLC PDX xenograft model; type: in vivo, mice
Source text: as §1, §5, §6

Structure (SMILES): Cn1c(COP(=O)(NCCBr)NCCBr)cnc1[N+](=O)[O-] [TH-302, (2-bromoethyl)({[(2-bromoethyl)amino][(2-nitro-3-methylimidazol-4-yl)methoxy]phosphoryl})amine]
- %ΔT/ΔC (TH-302) ([1]; LU1245, NSCLC EGFR wt, TH-302 60 mg/kg i.p. twice per week (Q2W), 49 days): −42%
- antitumor activity (tumor growth measurements), in words ([1]; LU1245, 60 mg/kg i.p. Q2W, 49 day dosing period): highly sensitive
- mice with a complete response (lack of tumor re-growth following regression) ([1]; LU1245, 60 mg/kg i.p. Q2W, 49 day dosing, at day 73 (14 days post treatment termination)): 5/10
- changes in the body weights of the mice treated with TH-302 ([2]; NSCLC PDX studies (LU1245, LU1380)): No significant changes
- changes in the body weights of the mice treated with TH-302 ([2]; gall bladder PDX studies (GL0608, GL1208)): No significant changes
- %ΔT/ΔC (TH-302) ([3]; LU2505, NSCLC EGFR wt, TH-302 60 mg/kg i.p. twice per week (Q2W), approximately 5-8 weeks): 34%
- antitumor activity, in words ([3]; LU2505, similar to LU1380): minor level of efficacy
- monotherapy efficacy (tumor growth delays) [4]: modest
- %ΔT/ΔC (TH-302) ([5]; GL0608, gall bladder, adenocarcinoma, TH-302 60 mg/kg i.p. twice per week (Q2W), 59 days): −100%
- mice with a complete response (lack of tumor re-growth following regression) ([5]; GL0608, 60 mg/kg i.p. Q2W for 59 days, at day 99, final tumor measurement): 10/10
- antitumor activity (tumor growth measurements), in words ([5]; GL0608, 60 mg/kg i.p. Q2W, treatment period 59 days): highly sensitive
- %ΔT/ΔC (TH-302) ([6]; LU0357, NSCLC EGFR mt, TH-302 60 mg/kg i.p. twice per week (Q2W), approximately 5-8 weeks): 93%
- antitumor activity, in words ([6]; LU0357, similar to LU1380): minor level of efficacy
- %ΔT/ΔC (TH-302) ([7]; GL1208, gall bladder, adenosquamous, TH-302 60 mg/kg i.p. twice per week (Q2W), 49 days): 62%
- antitumor activity (tumor growth measurements), in words ([7]; GL1208, 60 mg/kg i.p. Q2W, after 49 days treatment): minor tumor growth inhibition
- %ΔT/ΔC (TH-302) ([8]; LU0387, NSCLC EGFR mt, TH-302 60 mg/kg i.p. twice per week (Q2W), approximately 5-8 weeks): 84%
- antitumor activity, in words ([8]; LU0387, similar to LU1380): minor level of efficacy
- %ΔT/ΔC (TH-302) ([9]; LU1380, NSCLC EGFR wt, TH-302 60 mg/kg i.p. twice per week (Q2W), 42 days): 86%
- antitumor activity (tumor growth measurements), in words ([9]; LU1380, 60 mg/kg i.p. Q2W, after 42 days treatment): minor tumor growth inhibition
- %ΔT/ΔC (TH-302) ([10]; LU1304, NSCLC EGFR wt, TH-302 60 mg/kg i.p. twice per week (Q2W), approximately 5-8 weeks): 93%
- antitumor activity, in words ([10]; LU1304, similar to LU1380): minor level of efficacy
- %ΔT/ΔC (TH-302) ([11]; LU1235, NSCLC EGFR mt, TH-302 60 mg/kg i.p. twice per week (Q2W), approximately 5-8 weeks): 74%
- antitumor activity, in words ([11]; LU1235, similar to LU1380): minor level of efficacy

From US10071109B2, “Predictive biomarker for hypoxia-activated prodrug therapy” (Molecular Templates, Inc., priority 2013, dated 2018)
